Active and inactive are the calls of the source. No rule for the calls is given here.
Columns and labels:
[1] = tested on: human cells, Her2 expression AlphaScreen; CTG viability; assay: inhibitors of Her2 kinase expression, dose response, cell-based, AlphaScreen, CellTiter-Glo viability (AID 742); settings: for EC50: viability, CellTiter-Glo
[2] = as above; settings: human cells, Her2 expression AlphaScreen; CTG viability; at 9.62 µM (top of the series)

Row | Structure (SMILES) | EC50 [1] [µM] | Her2 inhibition [2] | IC50 [1]
1 | CNCCCC12CCC(c3ccccc31)c1ccccc12 | > 9.62 | -11.5% (inactive) | 
2 | COC(=O)/C=C/S(=O)(=O)c1ccc(NC(C)=O)cc1 | > 9.62 | 20.9% (inactive) | 
3 | CCc1ccc2oc(-c3cc(N=Cc4cccc(OC)c4O)ccc3O)nc2c1 | > 9.62 | 20.2% (inactive) | 
4 | Cc1cc(NC(=O)CNC(=O)C2CCCCC2)no1 | > 9.62 | 12.1% (inactive) | 
5 | CS(=O)(=O)c1nc(-c2cccs2)cc(C(F)(F)F)n1 | > 9.62 |  | 7.37 µM
6 | O=C(Nc1nccs1)C1C2/C=C\CCCCC21 (stereo not drawn) | > 9.62 | -0.67% (inactive) | 
7 | Cc1cc(C)n(-c2c(F)c(F)c(CN3CCOCC3)c(F)c2F)n1 | > 9.62 | -10.7% (inactive) | 
8 | Cc1[nH]nc2c1C(C1CC=CCC1)C(C#N)=C(N)O2 (stereo not drawn) | > 9.62 | -29.3% (inactive) | 
9 | CC(=O)C(Sc1ncnc2c1nnn2-c1ccc(F)cc1)C(=O)N(C)C (stereo not drawn) | > 9.62 | -16.5% (inactive) | 
10 | Nc1c(C(=O)Nc2ccccc2)sc2nc(-c3ccco3)ccc12 | > 9.62 | 18.3% (inactive) | 
11 | CCCCCNC(=O)C(C#N)c1nc2ccccc2nc1N1CCCC1 (stereo not drawn) | > 9.62 | -19% (inactive) | 
12 | Cc1cccc(Nc2nc(-c3ccccn3)cs2)n1 | > 9.62 | 0.46% (inactive) | 
13 | COc1ccc2sc(NC(=O)CC(C)C)nc2c1 | > 9.62 | 2.84% (inactive) | 
14 | CC1(C)CC(=O)C2=C(C1)OC1=C(C(=O)CC(C)(C)C1)C2c1ccc(O)cc1O | > 9.62 | 10.8% (inactive) | 
15 | O=S1(=O)C=C(Sc2nc3cc(Cl)ccc3o2)c2ccccc21 | > 9.62 |  | 9.25 µM
16 | O=C1C2=C(SCCS2)C(=O)N1CCCO | > 9.62 | -25% (inactive) | 
17 | CCOC(=O)CSc1nnc(-c2ccc(NS(=O)(=O)c3ccc(C)cc3)cc2)o1 | > 9.62 | 7.81% (inactive) | 
18 | CCCOc1ccc(C(=O)CCN2CCCCC2)cc1 | > 9.62 | -16.8% (inactive) | 
19 | COc1ccc(C(=O)C(CN2CCCC2)c2ccccc2)cc1 (stereo not drawn) | > 9.62 |  | 8.95 µM
20 | CC(=O)Nc1ccc(NS(=O)(=O)c2cc(C)sc2C)cc1 | > 9.62 | 0.09% (inactive) | 
21 | Cn1ncnc2c(=O)n(C)c(=O)nc1-2 | < 0.024 |  | 2.24 µM (inactive)

Row | Structure (SMILES) | EC50 [1] [µM] | Her2 inhibition [2] | IC50 [1]
22 | CCOC(=O)C1C(c2ccccc2Cl)NC(=O)N(C)C1(O)C(F)(F)F (stereo not drawn) | > 9.62 | -10.7% (inactive) | 
23 | CC(C)NCC(O)Cn1c2c(c3ccccc31)CCc1c-2cnn1-c1ccccc1 (stereo not drawn) | > 9.62 | 11.7% (inactive) | 
24 | c1ccc2cc(OCCN3CCCC3)ccc2c1 | > 9.62 | -36.3% (inactive) | 
25 | CCCCCN=Cc1c(C)[nH]n(-c2nc3ccccc3s2)c1=O | > 9.62 | -1.78% (inactive) | 
26 | O=S1(=O)C=C(Sc2nc3ccccc3s2)c2ccccc21 | > 9.62 |  | 5.63 µM
27 | CCCS(=O)(=O)N1CCC(C(=O)N2CCC(Cc3ccccc3)CC2)CC1 | > 9.62 | -12.4% (inactive) | 
28 | O=C1CC(Sc2nnc(-c3ccccc3O)o2)C(=O)N1c1ccccc1 (stereo not drawn) | > 9.62 | -8.42% (inactive) | 
29 | Cc1ccc(NC(=O)CNc2cccc(C)c2C)c(C)c1 | > 9.62 | -12.6% (inactive) | 
30 | CS(=O)(=O)c1nc(-c2ccco2)cc(C(F)(F)F)n1 | > 9.62 |  | 9.15 µM
31 | COc1ccccc1-n1nnnc1S(=O)(=O)Cc1ccc(Cl)cc1 | > 9.62 | 23.5% (inactive) | 
32 | O=C(Cc1cscn1)c1ccc(O)cc1O | > 9.62 | 3.58% (inactive) | 
33 | C=CCOC(=O)C1=C(C)Nc2nnnn2C1c1cc(OC)ccc1OC (stereo not drawn) | > 9.62 | -8.6% (inactive) | 
34 | CCCn1c(NC(=O)c2ccco2)nc2ccccc21 | > 9.62 |  | 2.13 µM
35 | Cc1ccccc1-c1nc(CN2CCC(C(=O)NCCC3=CCCCC3)CC2)c(C)o1 | > 9.62 | -53.7% (inactive) | 
36 | COc1ccc2oc(=O)c(-c3nnc(NCc4ccco4)s3)cc2c1 | > 9.62 | -2.67% (inactive) | 
37 | COc1cc(-c2nc(-c3ccc(NC(=O)c4ccc5c(c4)OCO5)cc3)no2)cc(OC)c1OC | > 9.62 | -12.5% (inactive) | 
38 | Cc1ccccc1OCCCC(=O)Nc1nccs1 | > 9.62 | -6.38% (inactive) | 
39 | Cc1ccc(-n2nc(C)c3c2OC(N)=C(C#N)C3c2ccc(F)cc2)cc1 (stereo not drawn) | > 9.62 | -1.17% (inactive) | 
40 | CN1CCN(CCCN2c3ccccc3Sc3ccc(Cl)cc32)CC1 | > 9.62 | -5.38% (inactive) | 
41 | N#CC(C#N)=c1ccc2c(c1)NC1(CCCCC1)N=2 | > 9.62 | 43.8% (inactive) | 
42 | C=C(C)Cn1c(-c2ccc(OC)cc2)nc2ccccc21 | > 9.62 | -19.2% (inactive) | 

Row | Structure (SMILES) | EC50 [1] [µM] | Her2 inhibition [2] | IC50 [1]
43 | CCN(CC(=O)NC1CCCCCC1)S(=O)(=O)c1ccccc1 | > 9.62 | -2.97% (inactive) | 
44 | CCOC(=O)c1c(NC(=O)CSc2n[nH]c(N)n2)sc(CC)c1C | > 9.62 | -10.4% (inactive) | 
45 | c1ccc(Cc2nn3c(COc4ccccc4)nnc3s2)cc1 | > 9.62 | -17.6% (inactive) | 
46 | CCOC(=O)Cc1csc(NC(=O)COc2ccc(OC)cc2)n1 | > 9.62 | -22.7% (inactive) | 
47 | CSC1=N/C(=C\C=C\c2cccs2)C(=O)S1 | > 9.62 |  | 8.09 µM
48 | CC1CN=C(N(C(=O)Nc2ccccc2)c2ccc(S(=O)(=O)N3CCOCC3)cc2)S1 (stereo not drawn) | > 9.62 | -5.35% (inactive) | 
49 | O=S(=O)(c1ccc2c(c1)C(=NO)c1cc(S(=O)(=O)N3CCCCC3)ccc1-2)N1CCCCC1 | < 0.024 | 27.4% (inactive) | 
50 | c1ccc(-n2c(-c3ccncc3)nnc2N2CCOCC2)cc1 | > 9.62 | -8.89% (inactive) | 
51 | Clc1ccc(COC(Cn2ccnc2)c2ccc(Cl)cc2Cl)c(Cl)c1 (stereo not drawn) | > 9.62 | -0.43% (inactive) | 
52 | Cc1ccc(S(=O)(=O)N2CCC(C(=O)N[C@@H](C)C(=O)NCCc3ccccc3)CC2)cc1 | > 9.62 | -5.1% (inactive) | 
53 | O=S(=O)(c1ccc(F)cc1)N(CCO)CC(O)Cn1c2ccccc2c2ccccc21 (stereo not drawn) | > 9.62 | -33.6% (inactive) | 
54 | COc1cc2c(C#N)c(N3CCN(c4ccccc4OC)CC3)nc(N)c2c(N)n1 | > 9.62 | -7.21% (inactive) | 
55 | Cn1c(Cl)cnc1C1CC(=O)c2cc(Cl)ccc2O1 (stereo not drawn) | > 9.62 | 15.6% (inactive) | 
56 | Cc1cc(-n2c(C)cc(C(=O)CSc3nnnn3-c3ccc(Cl)cc3)c2C)no1 | > 9.62 | -6.46% (inactive) | 
57 | O=c1cccc(-c2ccccc2)[nH]1 | > 9.62 | -24.1% (inactive) | 
58 | COc1ccccc1-n1c(SCC(=O)NC(C)(C)C)nc(O)cc1=O | > 9.62 | 8.19% (inactive) | 
59 | [O-][N+]1=c2ccc(Nc3ccccc3)cc2=NC12CCCCC2 | > 9.62 | -11% (inactive) | 
60 | Cc1ccc(S(=O)(=O)Nc2cccc3ncccc23)s1 | > 9.62 | 14.8% (inactive) | 
61 | CCOC(=O)CC1=C(C(=O)OCC)C(c2ccc(OC)cc2OC)C(C#N)=C(N)O1 (stereo not drawn) | > 9.62 | -27.6% (inactive) | 
62 | CCCC1C(c2ccccc2)C(C#N)(C#N)C2(C#N)CC1(N)NC2=O (stereo not drawn) | > 9.62 | -6.63% (inactive) | 
63 | O=S(=O)(NCc1ccco1)c1cccc2cccnc12 | > 9.62 | -18.5% (inactive) | 

Row | Structure (SMILES) | EC50 [1] [µM] | Her2 inhibition [2] | IC50 [1]
64 | CCNC(=O)c1nc[nH]c1C(=O)NCC | > 9.62 | 2.98% (inactive) | 
65 | CCn1nc(-c2ccccc2)nc2c(=O)n(C)c(=O)nc1-2 | < 0.024 |  | 4.48 µM (inactive)
66 | Cc1nc2nc(-c3ccco3)nn2c(C)c1Cl | > 9.62 |  | 2.6 µM
67 | Cn1c(C(C#N)C(=O)c2ccco2)nc2ccccc21 (stereo not drawn) | > 9.62 |  | 2.25 µM
68 | Cc1nc(NC(=O)c2ccco2)sc1C(=O)Nc1ccc(Br)cc1 | > 9.62 |  | 1.49 µM
69 | O=S(=O)(C/C(=C/CO)S(=O)(=O)c1ccccc1)c1ccccc1 | > 9.62 |  | 5.12 µM
70 | Cc1ccc(-c2csc3ncnc(Sc4nnc(CN5CCCCCC5=O)o4)c23)cc1 | > 9.62 |  | 4.53 µM
71 | COC(=O)/C(=C1/Oc2cc(C)oc(=O)c2S1)C(F)(F)F | < 0.024 |  | 3.78 µM (inactive)
72 | Cc1ccc(CNC(=O)c2cc3c(-c4ccc(Cl)cc4)nn(C)c3s2)o1 | > 9.62 |  | 6.48 µM
73 | CS(=O)(=O)c1nc(-c2ccccc2)cc(C(F)(F)F)n1 | > 9.62 |  | 9.06 µM
74 | COC(=O)c1sccc1NC(=O)c1ccc(Cl)s1 | > 9.62 |  | 9 µM
75 | CCCCS(=O)(=O)/C=C\C=C/S(=O)(=O)CCCC | > 9.62 |  | 4.07 µM
76 | CCN1/C(=C/C(=O)c2ccco2)Sc2ccccc21 | > 9.62 |  | 3.63 µM
77 | O=S1(=O)C=C(Sc2nnc(-c3ccccc3)o2)c2ccccc21 | > 9.62 |  | 7.54 µM
78 | CC(=O)c1sc2nc(-c3cccs3)cc(C(F)(F)F)c2c1N | > 9.62 |  | 9.32 µM
79 | Cc1nn2c(-c3ccco3)nnc2c2ccccc12 | > 9.62 |  | 2.38 µM
80 | Nc1nnnn1/N=C/C(Br)=C/c1ccccc1 | > 9.62 |  | 3.58 µM
81 | O=C(CSc1nc2cc(Cl)ccc2s1)c1ccco1 | > 9.62 |  | 5.09 µM
82 | CCn1nc(-c2cccs2)nc2c(=O)n(C)c(=O)nc1-2 | < 0.024 |  | 2.55 µM (inactive)
83 | CN(C)CC(C(=O)c1ccccc1)c1ccccc1 (stereo not drawn) | > 9.62 |  | 8.84 µM
84 | O=S(=O)(CC(CN1CCCC1)N1CCCC1)c1ccc2ccccc2c1 (stereo not drawn) | > 9.62 |  | 7.29 µM

Reference: PubChem BioAssay AID742 (SRMLSC, 2007)
